Assay results taken from PubChem BioAssay (NCI).
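Exposure lasted 48 hours, with cells grown in 96-well plates and compounds tested at five concentrations. TGI marks complete inhibition of growth.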

tested on: NCI-H522 lung; assay: DTP human tumour cell line panel, 48 h

SMILES	TGI [µM]
CSc1ccsc1-c1sc(-c2cc(SC)c(-c3sc(-c4cc(SC)c(-c5sccc5SC)s4)cc3SC)s2)cc1SC	> 100
COc1cccc(C2c3cc4c(cc3OC(C)(N3CCCC3)C2C)OCO4)c1 (stereo not given)	5.7
CCSC1=N/C(=C\c2ccc(N(C)C)cc2)C(Cl)=N1	> 100
COC1(OC)CCCc2c1no[n+]2[O-]	> 100
O=C(CC(C(=O)c1ccsc1)c1ccccc1)c1ccccc1 (stereo not given)	> 100
Cc1cc(C(F)(F)F)cc(-n2nc(NS(=O)(=O)c3cc(C)c(Cl)cc3S)nc2N)n1	91.5
O=C1C=C(NCCOCCO)C(=O)c2c(O)ccc(O)c21	47.1

tested on: NCI-H23 lung; assay: DTP human tumour cell line panel, 48 h

SMILES	TGI [µM]
Cn1c2c(c3ccccc31)CCN1C(=O)CN(C(=O)C3CCCCC3)CC21 (stereo not given)	> 100
CC(=O)OCC1OC(OC2CC3C(C)(C)C(O)CC[C@]3(C)C3CCC45CC4(CCC5[C@@H](C)CC(O)C(O)C(C)(C)O)[C@]23C)C(O)C(O)C1O (stereo not given in full)	> 10
C=C(Nc1nc2ccc(C)cc2s1)C(=O)C(CC)C(=O)C(CC)CC1C(=O)NC(=O)NC1=O (stereo not given)	> 100
COc1ccc(OC)c(/C=C(/C#N)c2ccccc2)c1	> 100
COC(=O)C(C(=O)Cc1ccccc1[N+](=O)[O-])C(=O)OC	> 100
CCOC(=O)c1sc2c(c1OC(=O)c1ccc(OC)cc1)c(=O)n(-c1ccccc1)c(=S)n2-c1ccccc1	> 100
Cc1ccc(Cl)c2c(=O)c3ccc(N)cc3sc12	97.4
C=CCN1CCC(O)(c2cc(C(=O)OCC)[nH]c2-c2cc(C)no2)C1 (stereo not given)	> 100
CC1CN=C(N(C(=O)Nc2ccc(Cl)c(Cl)c2)c2ccccc2)S1 (stereo not given)	> 100
CN(C)/N=C1/CCC(C(F)(F)F)(C(F)(F)F)O1	98.4
CCOC(=O)NNC(=O)NCCCCNC(=O)NNC(=O)OCC	> 100
COC(=O)c1nsc(OC)c1Cl	> 100
[N-]=[N+]=NCc1nc(N)c2c3c(sc2n1)CCCC3	3.78
CC(C)(C)OC/C=C(/CO)[C@@H]1C=C[C@H](O)C1	> 100
c1ccc2c(c1)SCCC2NC1=NCCO1 (stereo not given)	> 100
C=CCN(C(=O)CNC(=O)C(F)(F)F)c1cc(OCc2ccccc2)c2c(c1)c(C)cn2S(=O)(=O)c1ccccc1	> 100
CSc1ccsc1-c1sc(-c2cc(SC)c(-c3sc(-c4cc(SC)c(-c5sccc5SC)s4)cc3SC)s2)cc1SC	> 100
COc1cccc(C2c3cc4c(cc3OC(C)(N3CCCC3)C2C)OCO4)c1 (stereo not given)	71.1
CCSC1=N/C(=C\c2ccc(N(C)C)cc2)C(Cl)=N1	> 100
COC1(OC)CCCc2c1no[n+]2[O-]	> 100
O=C(CC(C(=O)c1ccsc1)c1ccccc1)c1ccccc1 (stereo not given)	36.1
CC1(C)OC[C@@H]([C@H](O)C2C=CC(=O)S2)O1 (stereo not given in full)	78.5
O=C1C=C(NCCOCCO)C(=O)c2c(O)ccc(O)c21	47.9
CC1CN=C(N(C(=O)Nc2ccccc2)c2ccc(Cl)c(Cl)c2)S1 (stereo not given)	> 100
CC(=O)O[C@H]1CC[C@@]2(C)C(=CC[C@H]3[C@@H]4C/C(=C\c5ccc(N(C)C)cc5)[C@H](OC(C)=O)[C@@]4(C)CC[C@@H]32)C1	30.9

tested on: M14 melanoma; assay: DTP human tumour cell line panel, 48 h

SMILES	TGI [µM]
Cn1c2c(c3ccccc31)CCN1C(=O)CN(C(=O)C3CCCCC3)CC21 (stereo not given)	> 100
CC(=O)OCC1OC(OC2CC3C(C)(C)C(O)CC[C@]3(C)C3CCC45CC4(CCC5[C@@H](C)CC(O)C(O)C(C)(C)O)[C@]23C)C(O)C(O)C1O (stereo not given in full)	> 10
C=C(Nc1nc2ccc(C)cc2s1)C(=O)C(CC)C(=O)C(CC)CC1C(=O)NC(=O)NC1=O (stereo not given)	> 100
COc1ccc(OC)c(/C=C(/C#N)c2ccccc2)c1	> 100
COC(=O)C(C(=O)Cc1ccccc1[N+](=O)[O-])C(=O)OC	> 100
CCOC(=O)c1sc2c(c1OC(=O)c1ccc(OC)cc1)c(=O)n(-c1ccccc1)c(=S)n2-c1ccccc1	> 100
O=C(Cn1c(-c2ccccc2)cc2ccccc21)N1CCCC1	> 100
Cc1ccc(Cl)c2c(=O)c3ccc(N)cc3sc12	> 100
C=CCN1CCC(O)(c2cc(C(=O)OCC)[nH]c2-c2cc(C)no2)C1 (stereo not given)	> 100
CC1CN=C(N(C(=O)Nc2ccc(Cl)c(Cl)c2)c2ccccc2)S1 (stereo not given)	> 100
CN(C)/N=C1/CCC(C(F)(F)F)(C(F)(F)F)O1	68.1
N#Cc1c(-c2ccc(Cl)cc2)c(C#N)c(=O)n(NS(=O)(=O)c2ccccc2)c1O	> 100
CCOC(=O)NNC(=O)NCCCCNC(=O)NNC(=O)OCC	> 100
COC(=O)c1nsc(OC)c1Cl	> 100
[N-]=[N+]=NCc1nc(N)c2c3c(sc2n1)CCCC3	17.7
CC(C)(C)OC/C=C(/CO)[C@@H]1C=C[C@H](O)C1	> 100
c1ccc2c(c1)SCCC2NC1=NCCO1 (stereo not given)	> 100
C=CCN(C(=O)CNC(=O)C(F)(F)F)c1cc(OCc2ccccc2)c2c(c1)c(C)cn2S(=O)(=O)c1ccccc1	> 100
CSc1ccsc1-c1sc(-c2cc(SC)c(-c3sc(-c4cc(SC)c(-c5sccc5SC)s4)cc3SC)s2)cc1SC	> 100
COc1cccc(C2c3cc4c(cc3OC(C)(N3CCCC3)C2C)OCO4)c1 (stereo not given)	13.9
CCSC1=N/C(=C\c2ccc(N(C)C)cc2)C(Cl)=N1	> 100
COC1(OC)CCCc2c1no[n+]2[O-]	> 100
O=C(CC(C(=O)c1ccsc1)c1ccccc1)c1ccccc1 (stereo not given)	> 100
CC1(C)OC[C@@H]([C@H](O)C2C=CC(=O)S2)O1 (stereo not given in full)	> 100
Cc1cc(C(F)(F)F)cc(-n2nc(NS(=O)(=O)c3cc(C)c(Cl)cc3S)nc2N)n1	> 100
O=C1C=C(NCCOCCO)C(=O)c2c(O)ccc(O)c21	66.9
CC1CN=C(N(C(=O)Nc2ccccc2)c2ccc(Cl)c(Cl)c2)S1 (stereo not given)	> 100
CC(=O)O[C@H]1CC[C@@]2(C)C(=CC[C@H]3[C@@H]4C/C(=C\c5ccc(N(C)C)cc5)[C@H](OC(C)=O)[C@@]4(C)CC[C@@H]32)C1	36

tested on: HCC-2998 colon; assay: DTP human tumour cell line panel, 48 h

SMILES	TGI [µM]
Cn1c2c(c3ccccc31)CCN1C(=O)CN(C(=O)C3CCCCC3)CC21 (stereo not given)	> 100
CC(=O)OCC1OC(OC2CC3C(C)(C)C(O)CC[C@]3(C)C3CCC45CC4(CCC5[C@@H](C)CC(O)C(O)C(C)(C)O)[C@]23C)C(O)C(O)C1O (stereo not given in full)	> 10
C=C(Nc1nc2ccc(C)cc2s1)C(=O)C(CC)C(=O)C(CC)CC1C(=O)NC(=O)NC1=O (stereo not given)	> 100
COC(=O)C(C(=O)Cc1ccccc1[N+](=O)[O-])C(=O)OC	> 100
CCOC(=O)c1sc2c(c1OC(=O)c1ccc(OC)cc1)c(=O)n(-c1ccccc1)c(=S)n2-c1ccccc1	38
CC1CN=C(N(C(=O)Nc2ccc(Cl)c(Cl)c2)c2ccccc2)S1 (stereo not given)	> 100
CN(C)/N=C1/CCC(C(F)(F)F)(C(F)(F)F)O1	> 100
N#Cc1c(-c2ccc(Cl)cc2)c(C#N)c(=O)n(NS(=O)(=O)c2ccccc2)c1O	35
COC(=O)c1nsc(OC)c1Cl	> 100
[N-]=[N+]=NCc1nc(N)c2c3c(sc2n1)CCCC3	4.76
CC(C)(C)OC/C=C(/CO)[C@@H]1C=C[C@H](O)C1	> 100
c1ccc2c(c1)SCCC2NC1=NCCO1 (stereo not given)	> 100
C=CCN(C(=O)CNC(=O)C(F)(F)F)c1cc(OCc2ccccc2)c2c(c1)c(C)cn2S(=O)(=O)c1ccccc1	> 100
CSc1ccsc1-c1sc(-c2cc(SC)c(-c3sc(-c4cc(SC)c(-c5sccc5SC)s4)cc3SC)s2)cc1SC	> 100
COc1cccc(C2c3cc4c(cc3OC(C)(N3CCCC3)C2C)OCO4)c1 (stereo not given)	32.8
CCSC1=N/C(=C\c2ccc(N(C)C)cc2)C(Cl)=N1	> 100
COC1(OC)CCCc2c1no[n+]2[O-]	> 100
O=C(CC(C(=O)c1ccsc1)c1ccccc1)c1ccccc1 (stereo not given)	> 100
CC1(C)OC[C@@H]([C@H](O)C2C=CC(=O)S2)O1 (stereo not given in full)	33.5
Cc1cc(C(F)(F)F)cc(-n2nc(NS(=O)(=O)c3cc(C)c(Cl)cc3S)nc2N)n1	> 100
O=C1C=C(NCCOCCO)C(=O)c2c(O)ccc(O)c21	43.6
CC1CN=C(N(C(=O)Nc2ccccc2)c2ccc(Cl)c(Cl)c2)S1 (stereo not given)	69.9

tested on: HCT-116 colon; assay: DTP human tumour cell line panel, 48 h

SMILES	TGI [µM]
Cn1c2c(c3ccccc31)CCN1C(=O)CN(C(=O)C3CCCCC3)CC21 (stereo not given)	> 100
CC(=O)OCC1OC(OC2CC3C(C)(C)C(O)CC[C@]3(C)C3CCC45CC4(CCC5[C@@H](C)CC(O)C(O)C(C)(C)O)[C@]23C)C(O)C(O)C1O (stereo not given in full)	> 10
C=C(Nc1nc2ccc(C)cc2s1)C(=O)C(CC)C(=O)C(CC)CC1C(=O)NC(=O)NC1=O (stereo not given)	> 100
COc1ccc(OC)c(/C=C(/C#N)c2ccccc2)c1	> 100
COC(=O)C(C(=O)Cc1ccccc1[N+](=O)[O-])C(=O)OC	> 100
CCOC(=O)c1sc2c(c1OC(=O)c1ccc(OC)cc1)c(=O)n(-c1ccccc1)c(=S)n2-c1ccccc1	> 100
O=C(Cn1c(-c2ccccc2)cc2ccccc21)N1CCCC1	> 100
Cc1ccc(Cl)c2c(=O)c3ccc(N)cc3sc12	35.1
C=CCN1CCC(O)(c2cc(C(=O)OCC)[nH]c2-c2cc(C)no2)C1 (stereo not given)	> 100
CC1CN=C(N(C(=O)Nc2ccc(Cl)c(Cl)c2)c2ccccc2)S1 (stereo not given)	> 100
CN(C)/N=C1/CCC(C(F)(F)F)(C(F)(F)F)O1	94
N#Cc1c(-c2ccc(Cl)cc2)c(C#N)c(=O)n(NS(=O)(=O)c2ccccc2)c1O	33.1
CCOC(=O)NNC(=O)NCCCCNC(=O)NNC(=O)OCC	> 100
COC(=O)c1nsc(OC)c1Cl	> 100
[N-]=[N+]=NCc1nc(N)c2c3c(sc2n1)CCCC3	12
CC(C)(C)OC/C=C(/CO)[C@@H]1C=C[C@H](O)C1	> 100
c1ccc2c(c1)SCCC2NC1=NCCO1 (stereo not given)	> 100
C=CCN(C(=O)CNC(=O)C(F)(F)F)c1cc(OCc2ccccc2)c2c(c1)c(C)cn2S(=O)(=O)c1ccccc1	> 100
CSc1ccsc1-c1sc(-c2cc(SC)c(-c3sc(-c4cc(SC)c(-c5sccc5SC)s4)cc3SC)s2)cc1SC	> 100
COc1cccc(C2c3cc4c(cc3OC(C)(N3CCCC3)C2C)OCO4)c1 (stereo not given)	26.6
CCSC1=N/C(=C\c2ccc(N(C)C)cc2)C(Cl)=N1	> 100
COC1(OC)CCCc2c1no[n+]2[O-]	> 100
O=C(CC(C(=O)c1ccsc1)c1ccccc1)c1ccccc1 (stereo not given)	> 100
CC1(C)OC[C@@H]([C@H](O)C2C=CC(=O)S2)O1 (stereo not given in full)	27.3
Cc1cc(C(F)(F)F)cc(-n2nc(NS(=O)(=O)c3cc(C)c(Cl)cc3S)nc2N)n1	> 100
O=C1C=C(NCCOCCO)C(=O)c2c(O)ccc(O)c21	55
CC1CN=C(N(C(=O)Nc2ccccc2)c2ccc(Cl)c(Cl)c2)S1 (stereo not given)	> 100
CC(=O)O[C@H]1CC[C@@]2(C)C(=CC[C@H]3[C@@H]4C/C(=C\c5ccc(N(C)C)cc5)[C@H](OC(C)=O)[C@@]4(C)CC[C@@H]32)C1	25.3

tested on: UO-31 renal; assay: DTP human tumour cell line panel, 48 h

SMILES	TGI [µM]
Cn1c2c(c3ccccc31)CCN1C(=O)CN(C(=O)C3CCCCC3)CC21 (stereo not given)	> 100
CC(=O)OCC1OC(OC2CC3C(C)(C)C(O)CC[C@]3(C)C3CCC45CC4(CCC5[C@@H](C)CC(O)C(O)C(C)(C)O)[C@]23C)C(O)C(O)C1O (stereo not given in full)	> 10
C=C(Nc1nc2ccc(C)cc2s1)C(=O)C(CC)C(=O)C(CC)CC1C(=O)NC(=O)NC1=O (stereo not given)	> 100
COC(=O)C(C(=O)Cc1ccccc1[N+](=O)[O-])C(=O)OC	> 100
O=C(Cn1c(-c2ccccc2)cc2ccccc21)N1CCCC1	> 100
